Assay results from article PMC3914206.

Assays:
[1] = target: T1, panel of 442 kinases (Homo sapiens, UniProt Q07002); format: binding; settings: Compound Concentration 10 µM
T1 construct: purchased KINOMEscan
Text: (§1) We assessed the selectivity of members of this scaffold using the KINOMEscan methodology across a near comprehensive panel of 442 kinases [[18,27]].

[2] = target: T2, panel of 442 kinases (Homo sapiens, UniProt Q08881); format: binding; settings: Compound Concentration 10 µM
T2 construct: purchased KINOMEscan
T2 sequence (Q08881 1-620): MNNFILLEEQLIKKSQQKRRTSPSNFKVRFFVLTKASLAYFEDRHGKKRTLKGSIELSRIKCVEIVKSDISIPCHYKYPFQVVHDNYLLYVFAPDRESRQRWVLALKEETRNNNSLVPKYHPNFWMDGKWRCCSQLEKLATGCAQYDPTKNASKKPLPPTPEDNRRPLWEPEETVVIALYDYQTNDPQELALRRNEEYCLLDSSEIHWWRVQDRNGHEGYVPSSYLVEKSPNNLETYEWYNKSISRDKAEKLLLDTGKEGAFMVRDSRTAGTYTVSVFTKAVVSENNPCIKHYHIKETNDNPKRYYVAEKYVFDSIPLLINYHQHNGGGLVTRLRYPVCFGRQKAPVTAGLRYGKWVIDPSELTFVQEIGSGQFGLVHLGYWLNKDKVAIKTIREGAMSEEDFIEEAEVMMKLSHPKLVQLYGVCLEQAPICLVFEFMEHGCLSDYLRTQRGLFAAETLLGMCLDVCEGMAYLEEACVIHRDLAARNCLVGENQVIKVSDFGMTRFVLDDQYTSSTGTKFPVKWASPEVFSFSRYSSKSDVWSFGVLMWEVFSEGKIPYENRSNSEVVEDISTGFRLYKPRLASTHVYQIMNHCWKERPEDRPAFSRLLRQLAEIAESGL
Text: as §1

T1 sequence (Q07002 whole entry): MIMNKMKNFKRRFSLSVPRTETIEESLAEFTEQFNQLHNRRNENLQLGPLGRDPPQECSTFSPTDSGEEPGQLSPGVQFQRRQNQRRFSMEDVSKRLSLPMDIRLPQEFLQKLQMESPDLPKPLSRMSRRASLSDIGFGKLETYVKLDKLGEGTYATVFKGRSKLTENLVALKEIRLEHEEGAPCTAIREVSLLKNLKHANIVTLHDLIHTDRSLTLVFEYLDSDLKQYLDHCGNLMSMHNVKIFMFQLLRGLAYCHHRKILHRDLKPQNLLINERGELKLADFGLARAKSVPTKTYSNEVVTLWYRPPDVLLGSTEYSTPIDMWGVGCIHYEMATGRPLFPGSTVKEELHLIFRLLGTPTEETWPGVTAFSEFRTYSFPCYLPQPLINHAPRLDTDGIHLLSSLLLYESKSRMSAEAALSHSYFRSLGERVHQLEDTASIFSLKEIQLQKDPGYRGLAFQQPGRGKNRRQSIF

SMILES | KINOMEscan: PCTK3 [1] | KINOMEscan: ITK [2]
COc1cc(C(=O)N2CCC(N3CCN(C)CC3)CC2)ccc1Nc1ncc2c(n1)N(C)c1ccccc1C(=O)N2C [15 (LRRK2-IN-1)] | 100 | 82
COc1cc(C(=O)N2CCC(N3CCN(C)CC3)CC2)ccc1Nc1ncc2c(n1)N(C1CCCC1)c1ccccc1C(=O)N2C [Compound 25, 11-cyclopentyl-2-((2-methoxy-4-(4-(4-methylpiperazin-1-yl)piperidine-1-carbonyl)phenyl)amino)-5-methyl-5H-benzo[e]pyrimido[5,4-b][1,4]diazepin-6(11H)-one] | 100 | 100
CCOc1cc(C(=O)N2CCC(N3CCN(C)CC3)CC2)ccc1Nc1ncc2c(n1)N(C1CCCC1)c1ccccc1C(=O)N2C [Compound 26] | 100 | 100
